According to ChEMBL document CHEMBL1909046, “DrugMatrix in vitro pharmacology data”:

Columns and labels:
Melanocortin receptor 5 = Melanocortin receptor 5 (Homo sapiens, UniProt P33032); type: cell membranes, Membrane; conditions: hek293; note: in other assays of this panel Not Active means under 50% inhibition at 10 µM
[1] = DRUGMATRIX: Platelet-Derived Growth Factor (PDGF) radioligand binding (ligand: [125I] PDGF); type: cell-based; conditions: nih3t3; Not Active = under 50% inhibition at 10 µM
Acetylcholinesterase = Acetylcholinesterase (Homo sapiens, UniProt P22303); assay: DRUGMATRIX: Acetylcholinesterase enzyme inhibition (substrate: acetylthiocholine); type: cell-based, HEK293; conditions: hek293; Not Active = under 50% inhibition at 10 µM
Chain of Acetylcholinesterase (P22303 whole entry): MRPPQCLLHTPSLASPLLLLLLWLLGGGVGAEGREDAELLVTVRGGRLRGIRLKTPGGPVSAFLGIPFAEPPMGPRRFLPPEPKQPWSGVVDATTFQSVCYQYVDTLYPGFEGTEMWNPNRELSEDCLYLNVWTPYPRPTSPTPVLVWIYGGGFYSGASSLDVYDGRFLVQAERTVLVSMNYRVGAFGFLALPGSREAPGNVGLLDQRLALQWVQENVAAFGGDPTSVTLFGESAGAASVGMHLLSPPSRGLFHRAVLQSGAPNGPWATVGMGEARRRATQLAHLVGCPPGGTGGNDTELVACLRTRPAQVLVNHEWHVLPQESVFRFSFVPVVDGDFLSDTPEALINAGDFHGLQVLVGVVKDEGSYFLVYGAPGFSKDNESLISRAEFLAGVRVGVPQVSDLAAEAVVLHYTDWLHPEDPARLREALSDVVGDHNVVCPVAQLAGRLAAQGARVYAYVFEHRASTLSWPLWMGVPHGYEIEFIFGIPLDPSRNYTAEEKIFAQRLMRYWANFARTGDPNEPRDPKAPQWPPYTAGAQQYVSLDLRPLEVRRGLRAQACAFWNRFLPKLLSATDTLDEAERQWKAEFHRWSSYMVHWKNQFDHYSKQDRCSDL

[2] = biological target: Sodium-dependent noradrenaline transporter (Homo sapiens, UniProt P23975); assay: DRUGMATRIX: Norepinephrine Transporter radioligand binding (ligand: [125I] RTI-55); type: cell membranes, MDCK, Membrane; conditions: mdck; Not Active = under 50% inhibition at 10 µM
Chain of Sodium-dependent noradrenaline transporter (P23975 whole entry): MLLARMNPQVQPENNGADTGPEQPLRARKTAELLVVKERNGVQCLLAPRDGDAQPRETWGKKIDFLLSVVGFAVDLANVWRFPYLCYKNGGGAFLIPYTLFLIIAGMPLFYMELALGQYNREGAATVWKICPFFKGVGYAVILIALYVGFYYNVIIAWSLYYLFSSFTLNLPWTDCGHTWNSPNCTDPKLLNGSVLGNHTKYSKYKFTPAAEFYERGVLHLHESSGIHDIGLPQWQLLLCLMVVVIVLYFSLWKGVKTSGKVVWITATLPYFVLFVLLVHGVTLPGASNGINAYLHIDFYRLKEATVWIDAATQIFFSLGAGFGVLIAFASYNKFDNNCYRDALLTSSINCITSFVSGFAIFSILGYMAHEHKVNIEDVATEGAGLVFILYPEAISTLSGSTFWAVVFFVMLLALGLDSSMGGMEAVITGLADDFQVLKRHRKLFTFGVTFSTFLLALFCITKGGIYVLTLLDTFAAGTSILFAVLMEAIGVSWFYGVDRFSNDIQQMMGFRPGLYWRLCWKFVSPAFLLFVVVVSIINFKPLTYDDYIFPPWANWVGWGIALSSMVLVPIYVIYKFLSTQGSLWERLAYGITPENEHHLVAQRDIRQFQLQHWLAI

Carbonic anhydrase 2 = Carbonic anhydrase 2 (Homo sapiens, UniProt P00918); assay: DRUGMATRIX: Carbonic Anhydrase II enzyme inhibition (substrate: 4-Nitrophenyl acetate (4-NPA)); type: tissue-based, Erythrocyte; conditions: erythrocyte; Not Active = under 50% inhibition at 10 µM
[3] = biological target: T1, Vasoactive intestinal polypeptide receptor 1 (Homo sapiens, UniProt P32241); type: cell membranes, Membrane; conditions: ht-29; note: in other assays of this panel Not Active means under 50% inhibition at 10 µM
T1 sequence (P32241 whole entry): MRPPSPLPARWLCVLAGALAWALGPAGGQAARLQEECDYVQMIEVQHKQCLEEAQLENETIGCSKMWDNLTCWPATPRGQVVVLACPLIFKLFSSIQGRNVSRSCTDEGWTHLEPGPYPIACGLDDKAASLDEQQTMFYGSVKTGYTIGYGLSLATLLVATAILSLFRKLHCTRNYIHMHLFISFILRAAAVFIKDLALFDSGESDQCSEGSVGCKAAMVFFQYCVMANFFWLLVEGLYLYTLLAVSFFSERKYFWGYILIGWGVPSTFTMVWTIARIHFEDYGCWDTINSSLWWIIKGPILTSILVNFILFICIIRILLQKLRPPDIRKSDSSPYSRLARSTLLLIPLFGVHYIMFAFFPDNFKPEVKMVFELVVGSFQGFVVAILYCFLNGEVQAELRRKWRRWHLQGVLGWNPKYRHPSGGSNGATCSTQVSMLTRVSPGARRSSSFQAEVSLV

[4] = biological target: Beta-1 adrenergic receptor (Homo sapiens, UniProt P08588); assay: DRUGMATRIX: Adrenergic beta1 radioligand binding (ligand: [125I] Cyanopindolol); type: cell membranes, CHO-K1, Membrane; conditions: cho-k1; Not Active = under 50% inhibition at 10 µM
Chain of Beta-1 adrenergic receptor (P08588 whole entry): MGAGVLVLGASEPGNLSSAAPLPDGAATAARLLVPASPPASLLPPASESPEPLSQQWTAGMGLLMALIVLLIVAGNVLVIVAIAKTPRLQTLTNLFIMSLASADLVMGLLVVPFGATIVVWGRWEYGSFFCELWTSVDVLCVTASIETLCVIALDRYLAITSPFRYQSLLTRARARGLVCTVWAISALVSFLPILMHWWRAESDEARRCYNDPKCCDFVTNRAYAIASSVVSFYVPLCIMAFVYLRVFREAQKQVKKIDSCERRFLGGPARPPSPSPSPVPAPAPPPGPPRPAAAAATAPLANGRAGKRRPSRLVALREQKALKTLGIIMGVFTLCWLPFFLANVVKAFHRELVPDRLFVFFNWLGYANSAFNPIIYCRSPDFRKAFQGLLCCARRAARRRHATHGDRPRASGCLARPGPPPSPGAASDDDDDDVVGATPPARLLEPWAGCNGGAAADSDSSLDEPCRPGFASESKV

Chain of Melanocortin receptor 5 (P33032 whole entry): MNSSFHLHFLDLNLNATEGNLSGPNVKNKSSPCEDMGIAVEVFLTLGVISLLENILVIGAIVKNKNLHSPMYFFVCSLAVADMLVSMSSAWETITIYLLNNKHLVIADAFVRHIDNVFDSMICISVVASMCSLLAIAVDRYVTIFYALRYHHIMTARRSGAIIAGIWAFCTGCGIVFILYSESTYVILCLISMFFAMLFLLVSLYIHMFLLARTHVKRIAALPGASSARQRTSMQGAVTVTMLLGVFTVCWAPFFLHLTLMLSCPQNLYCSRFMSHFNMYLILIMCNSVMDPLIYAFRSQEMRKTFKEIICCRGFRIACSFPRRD

CCN[C@@H]1C[C@H](N)[C@@H](O[C@H]2OC(CN)=CC[C@H]2N)[C@H](O)[C@H]1O[C@H]1OC[C@](C)(O)[C@H](NC)[C@H]1O [NETILMICIN]
Not Active: IC50 (Melanocortin receptor 5) | IC50 [1] | Ki [1] | IC50 (Acetylcholinesterase) | IC50 [2] | IC50 (Carbonic anhydrase 2) | IC50 [3] | IC50 [4]

COC(=O)C1=C(C)NC(C)=C(C(=O)OCC(C)C)C1c1ccccc1[N+](=O)[O-] (stereo not given) [NISOLDIPINE]
Not Active: IC50 (Melanocortin receptor 5) | IC50 [1] | Ki [1] | IC50 (Acetylcholinesterase) | IC50 [2] | IC50 (Carbonic anhydrase 2) | IC50 [3] | IC50 [4]

CCOC(=O)C1=C(C)NC(C)=C(C(=O)OC)C1c1cccc([N+](=O)[O-])c1 (stereo not given) [NITRENDIPINE]
Not Active: IC50 (Melanocortin receptor 5) | IC50 [1] | Ki [1] | IC50 (Acetylcholinesterase) | IC50 [2] | IC50 (Carbonic anhydrase 2) | IC50 [3] | IC50 [4]

C#C[C@]1(OC(C)=O)CC[C@H]2[C@@H]3CCC4=CC(=O)CC[C@@H]4[C@H]3CC[C@@]21C [NORETHINDRONE ACETATE]
Not Active: IC50 (Melanocortin receptor 5) | IC50 [1] | Ki [1] | IC50 (Acetylcholinesterase) | IC50 [2] | IC50 (Carbonic anhydrase 2) | IC50 [3] | IC50 [4]

COc1ccc2[nH]c([S+]([O-])Cc3ncc(C)c(OC)c3C)nc2c1 (stereo not given) [OMEPRAZOLE]
Not Active: IC50 (Melanocortin receptor 5) | IC50 [1] | Ki [1] | IC50 (Acetylcholinesterase) | IC50 [2] | IC50 (Carbonic anhydrase 2) | IC50 [3] | IC50 [4]

Cc1nccn1CC1CCc2c(c3ccccc3n2C)C1=O (stereo not given) [ONDANSETRON]
Not Active: IC50 (Melanocortin receptor 5) | IC50 [1] | Ki [1] | IC50 (Acetylcholinesterase) | IC50 [2] | IC50 (Carbonic anhydrase 2) | IC50 [3] | IC50 [4]

CCn1cc(C(=O)O)c(=O)c2cc(F)c(N3CCN(C)CC3)cc21 [PEFLOXACIN]
Not Active: IC50 (Melanocortin receptor 5) | IC50 [1] | Ki [1] | IC50 (Acetylcholinesterase) | IC50 [2] | IC50 (Carbonic anhydrase 2) | IC50 [3] | IC50 [4]

CCCCOc1ccc(OCCCN2CCOCC2)cc1 [PRAMOXINE]
Not Active: IC50 (Melanocortin receptor 5) | IC50 [1] | Ki [1] | IC50 (Acetylcholinesterase) | IC50 [2] | IC50 (Carbonic anhydrase 2) | IC50 [3] | IC50 [4]

O=C(C1CCCCC1)N1CC(=O)N2CCc3ccccc3C2C1 (stereo not given) [PRAZIQUANTEL]
Not Active: IC50 (Melanocortin receptor 5) | IC50 [1] | Ki [1] | IC50 (Acetylcholinesterase) | IC50 [2] | IC50 (Carbonic anhydrase 2) | IC50 [3] | IC50 [4]

CCN(CC)CCOC(=O)c1ccc(N)cc1 [PROCAINE]
Not Active: IC50 (Melanocortin receptor 5) | IC50 [1] | Ki [1] | IC50 (Acetylcholinesterase) | IC50 [2] | IC50 (Carbonic anhydrase 2) | IC50 [3] | IC50 [4]

CCCN(CCC)C(=O)C(CCC(=O)O)NC(=O)c1ccccc1 (stereo not given) [PROGLUMIDE]
Not Active: IC50 (Melanocortin receptor 5) | IC50 [1] | Ki [1] | IC50 (Acetylcholinesterase) | IC50 [2] | IC50 (Carbonic anhydrase 2) | IC50 [3] | IC50 [4]

NC(=O)c1cnccn1 [PYRAZINAMIDE]
Not Active: IC50 (Melanocortin receptor 5) | IC50 [1] | Ki [1] | IC50 (Acetylcholinesterase) | IC50 [2] | IC50 (Carbonic anhydrase 2) | IC50 [3] | IC50 [4]

OC(CCN1CCCCC1)(c1ccccc1)C1CCCCC1 (stereo not given) [TRIHEXYPHENIDYL]
Not Active: IC50 (Melanocortin receptor 5) | IC50 [1] | Ki [1] | IC50 (Acetylcholinesterase) | IC50 [2] | IC50 (Carbonic anhydrase 2) | IC50 [3] | IC50 [4]

Cc1cc2cc3c(C)cc(=O)oc3c(C)c2o1 [TRIOXSALEN]
Not Active: IC50 (Melanocortin receptor 5) | IC50 [1] | Ki [1] | IC50 (Acetylcholinesterase) | IC50 [2] | IC50 (Carbonic anhydrase 2) | IC50 [3] | IC50 [4]

CCCC(CCC)C(=O)O [VALPROIC ACID]
Not Active: IC50 (Melanocortin receptor 5) | IC50 [1] | Ki [1] | IC50 (Acetylcholinesterase) | IC50 [2] | IC50 (Carbonic anhydrase 2) | IC50 [3] | IC50 [4]
